Reference: ChEMBL document CHEMBL1134113, “Selective inhibition of Src SH2 by a novel thiol-targeting tricarbonyl-modified inhibitor and mechanistic analysis by (1)H/(13)C NMR spectroscopy” (Bioorg Med Chem Lett, 2001)
pIC50: −log10 of the molar value. Calls of active or inactive are those of the source. The rule behind the calls is not given here.

Tests used:
[1] = molecular target: Proto-oncogene tyrosine-protein kinase Src (Homo sapiens, UniProt P12931, C188A); experiment: (§1) Binding affinity for Cys188Ala Src SH2 domain mutant using BIAcore binding assay
[2] = molecular target: T1, Proto-oncogene tyrosine-protein kinase Src (Homo sapiens, UniProt P12931); experiment: Selectivity for Src SH2 domain compared to Cys188Ala Src SH2 domain mutants
[3] = molecular target: T1, Proto-oncogene tyrosine-protein kinase Src; experiment: Binding affinity for wild type Src SH2 domain using BIAcore binding assay
[4] = tested on: Proto-oncogene tyrosine-protein kinase Src (Homo sapiens), P12931 [C188A]; experiment: as §1; details: concentration not given here

| SMILES | pIC50 [1] | Selectivity [2] | pIC50 [3] | inhibition [4] [%] |
| --- | --- | --- | --- | --- |
| CC[C@H](C)[C@H](NC(=O)[C@H](CCC(=O)O)NC(=O)[C@H](CCC(=O)O)NC(=O)CCc1ccc(C(=O)C(O)(O)C(=O)OC)cc1)C(N)=O | < 3.00 | Active | 4.70 |  |
| CC[C@H](C)[C@H](NC(=O)[C@H](CCC(=O)O)NC(=O)[C@H](CCC(=O)O)NC(=O)C(Cc1ccc(C(=O)C(=O)C(=O)OC)cc1)NC(C)=O)C(N)=O (stereo not given in full) | < 3.00 | Active | 5.64 |  |
| CC[C@H](C)[C@H](NC(=O)[C@H](CCC(=O)O)NC(=O)[C@H](CCC(=O)O)NC(=O)[C@@H](N)Cc1ccc(OP(=O)(O)O)cc1)C(=O)O | 5.88 |  | 5.92 |  |
| COC(=O)C(O)(O)C(=O)c1ccccc1 | < 3.00 | Active | 4.00 |  |
| CC[C@H](C)[C@H](NC(=O)[C@H](CCC(=O)O)NC(=O)[C@H](CCC(=O)O)NC(=O)CCc1cccc(C(=O)C(O)(O)C(=O)OC)c1)C(N)=O | < 3.00 | Active | 4.74 |  |
| CC[C@H](C)[C@H](NC(=O)[C@H](CCC(=O)O)NC(=O)[C@H](CCC(=O)O)NC(=O)CCc1cccc(C(=O)O)c1)C(N)=O |  | inactive | 3.60 | 15 |
| COC(=O)C(=O)C(=O)c1ccc(CC(NC(C)=O)C(=O)N[C@@H](CCC(=O)O)C(=O)N[C@H](C(=O)N[C@@H](CC(C)C)C(N)=O)[C@@H](C)O)cc1 (stereo not given in full) | < 3.00 | Active | 5.07 |  |
